From US20100035867A1 (priority 2006, published 2010)

Columns and labels:
[1] = molecular target: T1, membrane guanylyl cyclase (guanylyl cyclase type B, GC-B) (Homo sapiens, UniProt P20594); assay: CNP-induced cyclic GMP accumulation in BE-2(C) neuroblastoma cells
T1 sequence (P20594 23-1047): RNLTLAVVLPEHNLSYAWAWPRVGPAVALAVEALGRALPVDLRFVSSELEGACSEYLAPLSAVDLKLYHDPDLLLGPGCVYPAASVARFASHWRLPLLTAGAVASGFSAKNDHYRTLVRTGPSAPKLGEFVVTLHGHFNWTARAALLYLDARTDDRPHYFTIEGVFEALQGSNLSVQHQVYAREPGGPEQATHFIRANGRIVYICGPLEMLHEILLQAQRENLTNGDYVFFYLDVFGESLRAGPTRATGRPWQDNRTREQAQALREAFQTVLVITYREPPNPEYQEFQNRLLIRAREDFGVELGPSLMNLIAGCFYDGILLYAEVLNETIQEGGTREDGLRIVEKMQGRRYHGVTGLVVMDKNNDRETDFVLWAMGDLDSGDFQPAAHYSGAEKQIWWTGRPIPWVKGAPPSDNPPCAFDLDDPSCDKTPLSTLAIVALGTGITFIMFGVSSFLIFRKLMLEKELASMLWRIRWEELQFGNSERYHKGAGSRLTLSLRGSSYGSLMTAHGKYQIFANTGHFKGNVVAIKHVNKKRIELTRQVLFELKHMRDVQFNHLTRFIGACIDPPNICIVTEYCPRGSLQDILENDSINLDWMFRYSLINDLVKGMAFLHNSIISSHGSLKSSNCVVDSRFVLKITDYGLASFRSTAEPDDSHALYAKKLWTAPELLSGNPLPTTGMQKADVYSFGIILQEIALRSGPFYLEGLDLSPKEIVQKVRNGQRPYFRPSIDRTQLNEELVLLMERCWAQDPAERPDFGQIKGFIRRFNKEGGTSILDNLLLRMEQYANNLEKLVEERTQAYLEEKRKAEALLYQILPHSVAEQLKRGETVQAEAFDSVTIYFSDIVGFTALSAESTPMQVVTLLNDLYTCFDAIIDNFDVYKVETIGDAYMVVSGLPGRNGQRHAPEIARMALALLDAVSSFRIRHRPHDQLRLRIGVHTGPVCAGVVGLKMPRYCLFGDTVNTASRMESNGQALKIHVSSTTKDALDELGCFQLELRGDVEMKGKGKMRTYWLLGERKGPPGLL

[2] = molecular target: T2, soluble guanylyl cyclase (sGC) (Rattus norvegicus, UniProt P19686+P20595); assay: Nitric oxide donor-induced cyclic GMP accumulation in RFL-6 fibroblast cells; conditions: RFL-6 cells, 10 μM benzotrifuroxan, 50 μM compound
T2 sequence (P20595 1-619): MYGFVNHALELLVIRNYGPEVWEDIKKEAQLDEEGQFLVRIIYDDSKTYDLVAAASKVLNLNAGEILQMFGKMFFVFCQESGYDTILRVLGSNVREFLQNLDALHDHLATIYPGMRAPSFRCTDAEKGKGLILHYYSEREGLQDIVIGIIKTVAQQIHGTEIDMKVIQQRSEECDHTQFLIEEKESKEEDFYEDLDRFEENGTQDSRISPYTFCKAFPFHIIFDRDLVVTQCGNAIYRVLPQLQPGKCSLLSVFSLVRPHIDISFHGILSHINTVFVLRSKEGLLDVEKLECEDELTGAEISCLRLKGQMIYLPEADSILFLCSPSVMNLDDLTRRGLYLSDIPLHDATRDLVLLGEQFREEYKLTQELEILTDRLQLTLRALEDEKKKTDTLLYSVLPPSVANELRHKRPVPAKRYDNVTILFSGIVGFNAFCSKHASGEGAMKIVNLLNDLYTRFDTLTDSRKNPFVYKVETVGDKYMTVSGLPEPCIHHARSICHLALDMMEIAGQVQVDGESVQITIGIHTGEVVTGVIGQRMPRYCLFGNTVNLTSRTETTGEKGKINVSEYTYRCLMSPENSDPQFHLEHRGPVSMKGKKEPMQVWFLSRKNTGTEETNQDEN
T2 sequence (P19686 1-690): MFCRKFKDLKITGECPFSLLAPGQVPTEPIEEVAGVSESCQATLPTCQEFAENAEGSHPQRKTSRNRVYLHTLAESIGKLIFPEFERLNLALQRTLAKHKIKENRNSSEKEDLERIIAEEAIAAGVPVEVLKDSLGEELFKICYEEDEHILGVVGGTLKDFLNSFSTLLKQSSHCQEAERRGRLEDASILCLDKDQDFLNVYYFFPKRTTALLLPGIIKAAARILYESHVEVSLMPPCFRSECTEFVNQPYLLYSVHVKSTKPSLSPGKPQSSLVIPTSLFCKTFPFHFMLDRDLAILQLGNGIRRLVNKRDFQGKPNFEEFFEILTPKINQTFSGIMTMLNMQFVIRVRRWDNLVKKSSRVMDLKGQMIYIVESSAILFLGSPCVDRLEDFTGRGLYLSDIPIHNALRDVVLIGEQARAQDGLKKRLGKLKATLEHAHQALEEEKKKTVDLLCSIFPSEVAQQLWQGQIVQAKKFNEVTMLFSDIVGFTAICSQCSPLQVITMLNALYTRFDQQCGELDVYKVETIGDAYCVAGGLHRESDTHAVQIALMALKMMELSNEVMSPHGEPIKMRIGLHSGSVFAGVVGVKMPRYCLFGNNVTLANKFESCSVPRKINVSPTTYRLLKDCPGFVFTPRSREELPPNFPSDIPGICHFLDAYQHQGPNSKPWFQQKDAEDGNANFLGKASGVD

Structure (SMILES): Cn1c2c(c(=O)n(C)c1=O)C(c1cccc(Br)c1)C1=C(N2)c2ccccc2C1=O (centres unmarked) [compound IIb]
- IC50 [1]: 11.2 µM
- inhibition of cyclic GMP accumulation (FIG. 6) [2]: inhibition
